# Reference: US20240261307A1, “INHIBITORS OF SARS-COV-2 VIRAL REPLICATION AND USES THEREOF” (ARIZONA BOARD OF REGENTS ON BEHALF OF THE UNIVERSITY OF …, priority 2021, published 2024)
# Entries after “also recorded” stand apart in the source; their conditions may differ. Non-standard residues stand in square brackets, D forms with d. Residues, ends and D or L forms follow the SMILES beside them. No end group written: not given here. Hyp = O=C(O)[C@@H]1C[C@@H](O)CN1; aThr = C[C@H](O)[C@H](N)C(=O)O
# Legend:
# SARS-CoV-2 [1] = assay: Viral reduction plaque assay in Vero cells; type: cell-based; design: key to Inhibition of Infection: ++: Validated strong inhibitor; +/−: Validated modest inhibitor; −: Validated no effect; conditions: for Inhibition of Infection: in-vitro experiments, SARS-CoV2; for number of infected cells compared to positive control: Vero cells, increasing concentrations, 4 days
# SARS-CoV-2 [2] = assay: Cytopathic effect (CPE) assay in Vero cells with P-gp inhibitor CP-100356; type: cell-based; conditions: for EC50: Severe acute respiratory syndrome coronavirus 2, read-out: EC50 of inhibition of virus-induced CPE
# SARS-CoV-2 [3] = type: cell-based
# West Nile virus (WNV) = assay: WNV replication in Vero cells by viral foci assay; type: cell-based; conditions: 100 μM
# Excerpt: To exclude such possibilities, we tested the ability of any of the 4 active compounds plus one negative control compound to suppress the replication of West Nile virus (WNV), an RNA virus of the unrelated flavivirus family. […] Together, our experiments confirmed compounds ZINC000008077555, ZINC000230464020, ZINC000006623878, and ZINC000085876900 as specific inhibitors of SARS-CoV-2 replication but not interfering with the host cell.
# The number of infectious SARS-CoV-2 virions was quantified by viral plaque assay. To this end, Vero cells were incubated with SARS-CoV-2 for 2 hrs and subsequently overlaid with 1% methylcellulose in culture medium. After 3-4 days, the cells were fixed in 10% formalin for 30 min, washed under tap water, and stained with crystal violet. The number of plaques corresponding to infections of individual cells by single virions was counted on a light table. The quantification of infectious WNV virions was performed similarly with the exception that the number of infected cell foci was determined by intracellular staining using a biotinylated anti-WNV-E antibody (clone E16), followed by an HRP-labeled anti-streptavidin antibody. HRP activity was detected with KPL Trueblue substrate (SeraCare).
# Viral replication of SARS-CoV-2 in the presence of Mpro inhibitors was measured in Vero or Calu-3 cells in three ways. […] The virus-induced cytopathic effect was measured by determining the fraction of formalin-fixed adherent cells that remained after 3 days (Vero cells) or 4 days (Calu-3 cells). To this end, the cells were stained with crystal violet, PBS-washed, and air-dried. Following resuspension in methanol, crystal violet staining was measured in the spectrophometer at OD594. Cytotoxicity of the compounds was measured in parallel by the staining of uninfected cells incubated with the […]. In a second approach, drug activity was determined in Vero cells directly by viral plaque assay, using between 100-500 Pfu/well of virus and indicated concentrations of Mpro inhibitors. In a third approach, Vero cells were infected with SARS-CoV-2 or WNV at an MOI of 0.01 in the presence of […] of Mpro inhibitors for 2-3 days. Viral replication was measured indirectly at indicated time points by quantifying the titers of infectious virions in the supernatants with viral plaque or foci assays in the absence of the compounds. Viral replication in Calu-3 cells in the presence of indicated concentrations of compounds was determined similarly.
# [4] = tested on: type I IFNs, ISGs, proinflammatory cytokines; type: cell-based, human; conditions: for type I IFNs, proinflammatory cytokines and ISGs in infected cells: cell line not given
# Vero cells = conditions: 100 μM, with 2 μM CP-100356
# Experimental: Vehicle-treated cells served as controls. The amounts of infectious virions in the cell supernatants were determined 2 days later by viral plaque assay.
Molecule,Inhibition of Infection (SARS-CoV-2 [1]),number of infected cells compared to positive control (SARS-CoV-2 [1]),EC50 (SARS-CoV-2 [2]),SARS-CoV-2 replication (viral titers in culture medium) (SARS-CoV-2 [3]),"suppression of SARS-CoV-2 replication, post-treatment (SARS-CoV-2 [3])","suppression of SARS-CoV-2 replication, pre-treatment (SARS-CoV-2 [3])",suppression of viral replication (SARS-CoV-2 [3]),replication of WNV (West Nile virus (WNV)),"type I IFNs, proinflammatory cytokines and ISGs in infected cells [4]",replication of WNV (West Nile virus (WNV); listed as ZINC00000807555),"expression of type I IFNs, ISGs and proinflammatory cytokines vs cells infected without compound [4]",toxicity (Vero cells),replication of WNV (West Nile virus (WNV); listed as ZINC0002304644020),activity against virus-induced CPE (SARS-CoV-2 [2])
"C[C@H](O)[C@H](N)C(=O)N[C@@H](Cc1ccc(O)cc1)C(=O)N[C@@H](CCCCN)C(=O)O [ZINC000005462364, (2S)-6-amino-2-[[(2S)-2-[[(2S,3S)-2-amino-3-hydroxybutanoyl]amino]-3-(4-hydroxyphenyl)propanoyl]amino]hexanoic acid] (H-[aThr]-Tyr-Lys-OH)",−,,,,,,,,,,,,,
"COc1ccc(CNC(=O)Cc2c(C)c3ccc(O)c(O)c3oc2=O)c(OC)c1 [ZINC000006623878, 2-(7,8-dihydroxy-4-methyl-2-oxochromen-3-yl)-N-[(2,4-dimethoxyphenyl)methyl]acetamide]",++,significant drop,4.6 to 22.6 µM,suppress SARS-CoV-2 replication,significant suppression,significant suppression,approximately 10 fold,did not significantly restrict replication of WNV; also recorded: do not impact WNV replication,enhance,,,,,
"NC(=O)CC[C@H](NC(=O)OCc1ccccc1)C(=O)NCCc1ccc(F)cc1 [ZINC000008077555, benzyl N-[(2S)-5-amino-1-[2-(4-fluorophenyl)ethylamino]-1,5-dioxopentan-2-yl]carbamate]",+/−,significant drop,4.6 to 22.6 µM,suppress SARS-CoV-2 replication,,,approximately 10 fold,did not significantly restrict replication of WNV,enhance,do not impact WNV replication,,,,
"Nc1ncnc2c1ncn2[C@@H]1O[C@H](COP(=O)(O)OP(=O)(O)OP(=O)(O)OC[C@@H]2O[C@H](n3cnc4c(N)ncnc43)[C@H](O)[C@@H]2O)[C@H](O)[C@@H]1O [ZINC000085591448, [[(2S,3S,4R,5S)-5-(6-aminopurin-9-yl)-3,4-dihydroxyoxolan-2-yl]methoxy-hydroxyphosphoryl] [[(2R,3R,4S,5R)-5-(6-aminopurin-9-yl)-3,4-dihydroxyoxolan-2-yl]methoxy-hydroxyphosphoryl] hydrogen phosphate]",−,,,,,,,,,,,,,
"COc1ccc(-c2coc3c4c(cc(O)c3c2=O)OC(=O)C[C@@H]4c2ccc(OCC(N)=O)cc2)cc1 [ZINC000085876900, 2-[4-[(10R)-5-hydroxy-3-(4-methoxyphenyl)-4,8-dioxo-9,10-dihydropyrano[2,3-h]chromen-10-yl]phenoxy]acetamide]",,significant drop,4.6 to 22.6 µM,suppress SARS-CoV-2 replication,significant suppression,significant suppression,approximately 10 fold,did not significantly restrict replication of WNV; also recorded: do not impact WNV replication,enhance,,significantly higher expression,toxic,,
"CC(C)n1[nH]c(=O)c2c(-c3ccc(O)c(O)c3)c3oc4c(O)c(=O)ccc4c3[nH]c21 [ZINC000085879857, 10-(3,4-dihydroxyphenyl)-6-hydroxy-14-propan-2-yl-8-oxa-13,14,16-triazatetracyclo[7.7.0.02,7.011,15]hexadeca-1,3,6,9,11(15)-pentaene-5,12-dione]",−,,,,,,,,,,,,,
"COc1cc([C@H](CC(=O)NCCc2ccc(O)c(O)c2)c2c(O)nc3ccccn3c2=O)cc2c1OCCO2 [ZINC000230464020, (3S)-N-[2-(3,4-dihydroxyphenyl)ethyl]-3-(2-hydroxy-4-oxopyrido[1,2-a]pyrimidin-3-yl)-3-(5-methoxy-2,3-dihydro-1,4-benzodioxin-7-yl)propanamide]",,significant drop,4.6 to 22.6 µM,suppress SARS-CoV-2 replication,significant suppression,significant suppression,approximately 10 fold,did not significantly restrict replication of WNV,enhance,,significantly higher expression,,do not impact WNV replication,
"C[C@H](NC(=O)[C@H](N)Cc1ccc(O)cc1)C(=O)N[C@H](Cc1ccccc1)C(=O)N1C[C@H](O)C[C@H]1C(=O)N[C@@H](Cc1ccc(O)cc1)C(N)=O [ZINC000644163977, (2S,4R)-N-[(2S)-1-amino-3-(4-hydroxyphenyl)-1-oxopropan-2-yl]-1-[(2R)-2-[[(2S)-2-[[(2R)-2-amino-3-(4-hydroxyphenyl)propanoyl]amino]propanoyl]amino]-3-phenylpropanoyl]-4-hydroxypyrrolidine-2-carboxamide] (H-[dY]A[dF][Hyp]Y-NH2)",+/−,modest,,did not,,,,,,,,,,negligible activity
"RYLGYL [ZINC000097972782, (2S)-2-[[(2S)-2-[[2-[[(2S)-2-[[(2S)-2-[[(2S)-2-amino-5-(diaminomethylideneamino)pentanoyl]amino]-3-(4-hydroxyphenyl)propanoyl]amino]-4-methylpentanoyl]amino]acetyl]amino]-3-(4-hydroxyphenyl)propanoyl]amino]-4-methylpentanoic acid]",−,,,,,,,,,,,,,
